# In ChEMBL document CHEMBL3045943, “Novel N-aryl(alkaryl)-2-[(3-R-2-oxo-2H-[1,2,4]triazino[2,3-c]quinazoline-6-yl)thio]acetamides: synthesis, cytotoxicity, anticancer activity, COMPARE analysis and docking” (2013):
# Columns and labels:
# Type in all cases: functional
# OVCAR-3 = assay: Cytotoxicity against Homo sapiens (human) OVCAR3 cells after 48 hr by SRB assay; settings: OVCAR-3, 48 h
# RXF 393 = assay: Cytotoxicity against Homo sapiens (human) RXF393 cells assessed as cell growth at 10 uM after 48 hr by SRB assay relative to control; settings: RXF 393, 48 h, read-out: Activity
# Malme-3M [1] = assay: Cytotoxicity against Homo sapiens (human) MALME-3M cells assessed as cell growth at 10 uM after 48 hr by SRB assay relative to control; settings: read-out: Activity
# MCF7 [2] = assay: Cytotoxicity against Homo sapiens (human) MCF7 cells after 48 hr by SRB assay; settings: MCF7, 48 h
# SK-MEL-28 = assay: Cytotoxicity against Homo sapiens (human) SK-MEL-28 cells assessed as cell growth at 10 uM after 48 hr by SRB assay relative to control; settings: SK-MEL-28, 48 h, read-out: Activity
# OVCAR-4 = assay: Cytotoxicity against Homo sapiens (human) OVCAR4 cells assessed as cell growth at 10 uM after 48 hr by SRB assay relative to control; settings: OVCAR-4, 48 h, read-out: Activity
# MCF7 [3] = assay: Cytotoxicity against Homo sapiens (human) MCF7 cells assessed as cell growth at 10 uM after 48 hr by SRB assay relative to control; settings: MCF7, 48 h, read-out: Activity
# Malme-3M [4] = assay: Cytotoxicity against Homo sapiens (human) MALME-3M cells after 48 hr by SRB assay
# NCI-H522 = assay: Cytotoxicity against Homo sapiens (human) NCI-H522 cells assessed as cell growth at 10 uM after 48 hr by SRB assay relative to control; settings: NCI-H522, 48 h, read-out: Activity
# SK-MEL-5 [5] = assay: Cytotoxicity against Homo sapiens (human) SK-MEL-5 cells assessed as cell growth at 10 uM after 48 hr by SRB assay relative to control; settings: SK-MEL-5, 48 h, read-out: Activity
# HCT-15 = assay: Cytotoxicity against Homo sapiens (human) HCT15 cells assessed as cell growth at 10 uM after 48 hr by SRB assay relative to control; settings: HCT-15, 48 h, read-out: Activity
# OVCAR-8 = assay: Cytotoxicity against Homo sapiens (human) OVCAR8 cells assessed as cell growth at 10 uM after 48 hr by SRB assay relative to control; settings: OVCAR-8, 48 h, read-out: Activity
# M14 = assay: Cytotoxicity against Homo sapiens (human) M14 cells after 48 hr by SRB assay; settings: M14, 48 h
# U-251 = assay: Cytotoxicity against Homo sapiens (human) U251 cells assessed as cell growth at 10 uM after 48 hr by SRB assay relative to control; settings: U-251, 48 h, read-out: Activity
# SNB-75 = assay: Cytotoxicity against Homo sapiens (human) SNB75 cells assessed as cell growth at 10 uM after 48 hr by SRB assay relative to control; settings: SNB-75, 48 h, read-out: Activity
# HOP-62 = assay: Cytotoxicity against Homo sapiens (human) HOP62 cells assessed as cell growth at 10 uM after 48 hr by SRB assay relative to control; settings: HOP-62, 48 h, read-out: Activity
# UACC-62 = assay: Cytotoxicity against Homo sapiens (human) UACC62 cells after 48 hr by SRB assay; settings: UACC-62, 48 h
# HOP-92 = assay: Cytotoxicity against Homo sapiens (human) HOP92 cells after 48 hr by SRB assay; settings: HOP-92, 48 h
# TK-10 = assay: Cytotoxicity against Homo sapiens (human) TK10 cells after 48 hr by SRB assay; settings: TK-10, 48 h
# HT-29 = assay: Cytotoxicity against Homo sapiens (human) HT-29 cells assessed as cell growth at 10 uM after 48 hr by SRB assay relative to control; settings: HT-29, 48 h, read-out: Activity
# SF-268 = assay: Cytotoxicity against Homo sapiens (human) SF268 cells after 48 hr by SRB assay; settings: SF-268, 48 h
# UO-31 [6] = assay: Cytotoxicity against Homo sapiens (human) UO31 cells after 48 hr by SRB assay; settings: UO-31, 48 h
# SF-539 = assay: Cytotoxicity against Homo sapiens (human) SF539 cells after 48 hr by SRB assay; settings: SF-539, 48 h
# UO-31 [7] = assay: Cytotoxicity against Homo sapiens (human) UO31 cells assessed as cell growth at 10 uM after 48 hr by SRB assay relative to control; settings: UO-31, 48 h, read-out: Activity
# BT-549 = assay: Cytotoxicity against Homo sapiens (human) BT549 cells after 48 hr by SRB assay; settings: BT-549, 48 h
# CAKI-1 = assay: Cytotoxicity against Homo sapiens (human) Caki1 cells after 48 hr by SRB assay; settings: CAKI-1, 48 h
# ACHN = assay: Cytotoxicity against Homo sapiens (human) ACHN cells after 48 hr by SRB assay
# SK-MEL-5 [8] = assay: Cytotoxicity against Homo sapiens (human) SK-MEL-5 cells after 48 hr by SRB assay; settings: SK-MEL-5, 48 h
# 786-0 = assay: Cytotoxicity against Homo sapiens (human) 786-0 cells after 48 hr by SRB assay; settings: 786-0, 48 h
# IGROV-1 = assay: Cytotoxicity against Homo sapiens (human) IGROV1 cells after 48 hr by SRB assay; settings: IGROV-1, 48 h
# A498 = assay: Cytotoxicity against Homo sapiens (human) A498 cells assessed as cell growth at 10 uM after 48 hr by SRB assay relative to control; settings: A498, 48 h, read-out: Activity
# HCT-116 = assay: Cytotoxicity against Homo sapiens (human) HCT116 cells after 48 hr by SRB assay; settings: HCT-116, 48 h
# [9] = read-out: pLC50 (the source's name) (converted)
compound,measurement,setting,value
COc1ccc(-c2nn3c(SCC(=O)Nc4ccccc4Cl)nc4ccccc4c3nc2=O)cc1,GI50,OVCAR-3,1.38 µM
same,CC50,OVCAR-3; [9],> 100 µM
same,TGI,OVCAR-3; read-out: pTGI (converted),3.31 µM
same,growth at 10 µM,RXF 393,37.4%
same,growth at 10 µM,Malme-3M [1],18.8%
same,GI50,MCF7 [2],2.34 µM
same,CC50,MCF7 [2]; [9],> 100 µM
same,TGI,MCF7 [2]; read-out: pTGI,> 100 µM
same,growth at 10 µM,SK-MEL-28,-5.98%
same,growth at 10 µM,OVCAR-4,45%
same,growth at 10 µM,MCF7 [3],32.8%
same,GI50,Malme-3M [4],1.86 µM
same,CC50,Malme-3M [4]; [9],> 100 µM
same,TGI,Malme-3M [4]; read-out: pTGI (converted),7.94 µM
same,growth at 10 µM,NCI-H522,36.5%
same,growth at 10 µM,SK-MEL-5 [5],41.4%
same,growth at 10 µM,HCT-15,71.9%
same,growth at 10 µM,OVCAR-8,31.5%
same,GI50,M14,2.63 µM
same,CC50,M14; [9],> 100 µM
same,TGI,M14; read-out: pTGI (converted),100 µM
same,growth at 10 µM,U-251,-22.6%
same,growth at 10 µM,SNB-75,55.6%
same,growth at 10 µM,HOP-62,30.3%
same,GI50,UACC-62,2.75 µM
same,CC50,UACC-62; [9],> 100 µM
same,TGI,UACC-62; read-out: pTGI (converted),67.6 µM
same,GI50,HOP-92,1.82 µM
same,CC50,HOP-92; [9],42.7 µM
same,TGI,HOP-92; read-out: pTGI (converted),9.12 µM
same,GI50,TK-10,2.19 µM
same,CC50,TK-10; [9],33.9 µM
same,TGI,TK-10; read-out: pTGI (converted),7.24 µM
same,growth at 10 µM,HT-29,5.16%
same,GI50,SF-268,2.95 µM
same,CC50,SF-268; [9],72.4 µM
same,TGI,SF-268; read-out: pTGI (converted),13.8 µM
COc1ccccc1CNC(=O)CSc1nc2ccccc2c2nc(=O)c(-c3ccccc3)nn12,GI50,UO-31 [6],1.86 µM
same,LC50,UO-31 [6],> 100 µM
same,TGI,UO-31 [6]; read-out: pTGI,> 100 µM
same,GI50,SF-539,1.82 µM
same,CC50,SF-539; [9],> 100 µM
same,TGI,SF-539; read-out: pTGI,> 100 µM
same,growth at 10 µM,UO-31 [7],43.8%
same,GI50,BT-549,2.14 µM
same,LC50,BT-549,74.1 µM
same,TGI,BT-549; read-out: pTGI (converted),3.98 µM
same,GI50,CAKI-1,1.91 µM
same,CC50,CAKI-1; [9],> 100 µM
same,TGI,CAKI-1; read-out: pTGI,> 100 µM
same,GI50,ACHN,1.86 µM
same,CC50,ACHN; [9],> 100 µM
same,TGI,ACHN; read-out: pTGI,> 100 µM
same,GI50,SK-MEL-5 [8],2.69 µM
same,LC50,SK-MEL-5 [8],> 100 µM
same,TGI,SK-MEL-5 [8]; read-out: pTGI,> 100 µM
same,GI50,786-0,2.24 µM
same,CC50,786-0; [9],> 100 µM
same,TGI,786-0; read-out: pTGI,5.25 µM
same,GI50,IGROV-1,3.02 µM
same,CC50,IGROV-1; [9],> 100 µM
same,TGI,IGROV-1; read-out: pTGI,> 100 µM
same,growth at 10 µM,A498,-23.1%
same,GI50,HCT-116,2.69 µM
same,CC50,HCT-116; [9],> 100 µM
same,TGI,HCT-116; read-out: pTGI,> 100 µM
